Assay results reported in ChEMBL document CHEMBL1156431, “15-deoxyspergualin primarily targets the trafficking of apicoplast proteins in Plasmodium falciparum” (J Biol Chem, 2007).
Active and inactive are the calls of the source. The calls are words filed in the database; no cut-off is given here.

Assays:
[1] = tested on: Plasmodium falciparum; assay: Inhibition of fatty acid synthesis in Plasmodium falciparum FCK2 trophozoites at 10 uM; assay type: functional, organism-based
[2] = tested on: Plasmodium falciparum; assay: Growth inhibition as apicoplast copy number of Plasmodium falciparum FCK2 at 100 nM by [3H]hypoxanthine uptake; assay type: functional
[3] = tested on: Plasmodium falciparum; assay: TufA expression level in Plasmodium falciparum FCK2 first asexual cycle; assay type: functional, organism-based
[4] = tested on: Plasmodium falciparum; assay: Antimalarial activity as reduced parasitaemia after 12 hrs against Plasmodium falciparum FCK2 second asexual cycle at 1 uM by [3H]hypoxanthine uptake; assay type: functional, organism-based
[5] = Inhibition of putrescine transporter-mediated [3H]putrescine transport in Plasmodium falciparum FCK2 infected human red blood cells
[6] = tested on: Plasmodium falciparum; assay: Actin expression level in Plasmodium falciparum FCK2; assay type: functional, organism-based
[7] = tested on: Plasmodium falciparum; assay: Inhibition of fatty acid synthesis in Plasmodium falciparum FCK2 trophozoites at 1 uM; assay type: functional, organism-based
[8] = tested on: Plasmodium falciparum; assay: Inhibition of fatty acid synthesis in Plasmodium falciparum FCK2 shizonts at 1 uM; assay type: functional, organism-based
[9] = tested on: Plasmodium falciparum; assay: Inhibition of fatty acid synthesis in Plasmodium falciparum FCK2 ring stage at 1 uM; assay type: functional, organism-based
[10] = Inhibition of spermidine transporter-mediated [3H]spermidine transport in human red blood cells; assay type: cell-based
[11] = tested on: Plasmodium falciparum; assay: Decreased processed NEAT protein FabG level in Plasmodium falciparum FCK2 first asexual cycle; assay type: functional, organism-based
[12] = tested on: Plasmodium falciparum; assay: Inhibition of fatty acid synthesis in late trophozoite Plasmodium falciparum FCK2 at 1 uM; assay type: functional, organism-based
[13] = tested on: Plasmodium falciparum; assay: Growth inhibition of Plasmodium falciparum FCK2 as apicoplast copy numbers at 1 uM in [3H]hypoxanthine uptake; assay type: functional
[14] = tested on: Plasmodium falciparum; assay: Antimalarial activity against Plasmodium falciparum FCK2 infected human erythrocytes with exogenous spermidine; assay type: functional, organism-based
[15] = Inhibition of putrescine transporter-mediated [3H]putrescine transport in human red blood cells; assay type: cell-based
[16] = tested on: Plasmodium falciparum; assay: Inhibition of spermidine transporter-mediated [3H]spermidine transport in Plasmodium falciparum FCK2 infected human red blood cells at 1 mM
[17] = tested on: Plasmodium falciparum; assay: Inhibition of protein synthesis in Plasmodium falciparum FCK2 by [35S]methionine uptake; assay type: functional, organism-based
[18] = tested on: Plasmodium falciparum; assay: Antimalarial activity against Plasmodium falciparum FCK2 by [3H]hypoxanthine uptake; assay type: functional, organism-based

Structure (SMILES)	Activity [1]	Activity [2]	Activity [3]	Activity [4]	IC50 [5] [µM]	Activity [6]	Activity [7]	Activity [8]	Activity [9]	IC50 [10] [µM]	Activity [11]	Activity [12]	Activity [13]	Activity [14]	IC50 [15] [µM]	Activity [16]	IC50 [17] [µM]	IC50 [18] [µM]
Oc1cc(Cl)ccc1Oc1ccc(Cl)cc1Cl	Active	–	–	–	–	–	–	–	–	–	–	–	–	–	–	–	–	–
CCC[C@@H]1C[C@@H](C(=O)N[C@@H]([C@H]2O[C@H](SC)[C@H](O)[C@@H](O)[C@H]2O)[C@H](C)Cl)N(C)C1 [CLINDAMYCIN]	–	0.4	Active	–	–	–	–	–	–	–	–	–	–	–	–	–	–	–
N=C(N)NCCCCCCC(=O)NC(O)C(=O)NCCCCNCCCN (centres undefined) [GUSPERIMUS]	–	–	inactive	inactive	1120	inactive	inactive	Active	inactive	372	Active	inactive	0.13	Active	924	inactive	443	0.148
